Results: ChEMBL document CHEMBL3046801, “Synthesis of 2-R1-2-(4-(2-fluoroethoxy)benzamido)acetate as potential PET imaging agents” (Med Chem Res, 2012)

How the values were obtained:
Muscle tissue [1] = test: Biodistribution in tumor bearing Mus musculus KM (mouse) muscle by microPET imaging analysis; assay type: ADME, organism-based; conditions: in vivo, TDE = time-dependent effect
Blood [2] = test: Biodistribution in tumor bearing Mus musculus KM (mouse) blood by microPET imaging analysis; assay type: ADME, organism-based; conditions: in vivo, TDE = time-dependent effect
Nucleic Acid [3] = test: Ratio of drug uptake in tumor to muscle in Mus musculus KM (mouse) at 120 min; assay type: ADME; conditions: in vivo, 2 h
Brain [4] = test: Biodistribution in tumor bearing Mus musculus KM (mouse) brain at 15 min by microPET imaging analysis; assay type: ADME, organism-based; conditions: in vivo, 0.25 h
Spleen [5] = test: Biodistribution in tumor bearing Mus musculus KM (mouse) spleen by microPET imaging analysis; assay type: ADME, organism-based; conditions: in vivo, TDE = time-dependent effect
Brain [6] = test: Biodistribution in tumor bearing Mus musculus KM (mouse) brain at 60 min by microPET imaging analysis; assay type: ADME, organism-based; conditions: in vivo, 1 h
Kidney [7] = test: Biodistribution in tumor bearing Mus musculus KM (mouse) kidney by microPET imaging analysis; assay type: ADME, organism-based; conditions: in vivo, TDE = time-dependent effect
Heart [8] = test: Biodistribution in tumor bearing Mus musculus KM (mouse) heart at 5 min by microPET imaging analysis; assay type: ADME, organism-based; conditions: in vivo
Tumour [9] = test: Biodistribution in Mus musculus KM (mouse) tumor at 5 min by microPET imaging analysis; assay type: ADME, organism-based, Neoplasm; conditions: in vivo
Kidney [10] = test: Biodistribution in tumor bearing Mus musculus KM (mouse) kidney at 120 min by microPET imaging analysis; assay type: ADME, organism-based; conditions: in vivo, 2 h
Tumour [11] = test: Biodistribution in tumor of Mus musculus KM (mouse) by microPET imaging analysis; assay type: ADME, organism-based, Neoplasm; conditions: in vivo, TDE = time-dependent effect
Liver [12] = test: Biodistribution in tumor bearing Mus musculus KM (mouse) liver at 15 min by microPET imaging analysis; assay type: ADME, organism-based; conditions: in vivo, 0.25 h
Muscle tissue [13] = test: Biodistribution in tumor bearing Mus musculus KM (mouse) muscle at 5 min by microPET imaging analysis; assay type: ADME, organism-based; conditions: in vivo
Nucleic Acid [14] = test: Ratio of drug uptake in tumor to muscle in Mus musculus KM (mouse) at 30 min; assay type: ADME, nucleic-acid assay; conditions: in vivo, 0.5 h
Nucleic Acid [15] = test: Ratio of drug uptake in tumor to muscle in Mus musculus KM (mouse) at 15 min; assay type: ADME, nucleic-acid assay; conditions: in vivo, 0.25 h
Lung [16] = test: Biodistribution in tumor bearing Mus musculus KM (mouse) lung by microPET imaging analysis; assay type: ADME, organism-based; conditions: in vivo, TDE = time-dependent effect
Lung [17] = test: Biodistribution in tumor bearing Mus musculus KM (mouse) Lung at 60 min by microPET imaging analysis; assay type: ADME, organism-based; conditions: in vivo, 1 h
Blood [18] = test: Biodistribution in tumor bearing Mus musculus KM (mouse) blood at 5 min by microPET imaging analysis; assay type: ADME, organism-based; conditions: in vivo
Heart [19] = test: Biodistribution in tumor bearing Mus musculus KM (mouse) heart at 120 min by microPET imaging analysis; assay type: ADME, organism-based; conditions: in vivo, 2 h
Lung [20] = test: Biodistribution in tumor bearing Mus musculus KM (mouse) Lung at 5 min by microPET imaging analysis; assay type: ADME, organism-based; conditions: in vivo
Muscle tissue [21] = test: Biodistribution in tumor bearing Mus musculus KM (mouse) muscle at 15 min by microPET imaging analysis; assay type: ADME, organism-based; conditions: in vivo, 0.25 h
Blood [22] = test: Biodistribution in tumor bearing Mus musculus KM (mouse) blood at 30 min by microPET imaging analysis; assay type: ADME, organism-based; conditions: in vivo, 0.5 h
Spleen [23] = test: Biodistribution in tumor bearing Mus musculus KM (mouse) spleen at 60 min by microPET imaging analysis; assay type: ADME, organism-based; conditions: in vivo, 1 h
Heart [24] = test: Biodistribution in tumor bearing Mus musculus KM (mouse) heart at 60 min by microPET imaging analysis; assay type: ADME, organism-based; conditions: in vivo, 1 h
Kidney [25] = test: Biodistribution in tumor bearing Mus musculus KM (mouse) kidney at 60 min by microPET imaging analysis; assay type: ADME, organism-based; conditions: in vivo, 1 h
Brain [26] = test: Biodistribution in tumor bearing Mus musculus KM (mouse) brain by microPET imaging analysis; assay type: ADME, organism-based; conditions: in vivo, TDE = time-dependent effect
Heart [27] = test: Biodistribution in tumor bearing Mus musculus KM (mouse) heart at 30 min by microPET imaging analysis; assay type: ADME, organism-based; conditions: in vivo, 0.5 h
Kidney [28] = test: Biodistribution in tumor bearing Mus musculus KM (mouse) kidney at 30 min by microPET imaging analysis; assay type: ADME, organism-based; conditions: in vivo, 0.5 h
Lung [29] = test: Biodistribution in tumor bearing Mus musculus KM (mouse) Lung at 30 min by microPET imaging analysis; assay type: ADME, organism-based; conditions: in vivo, 0.5 h
Tumour [30] = test: Biodistribution in Mus musculus KM (mouse) tumor at 30 min by microPET imaging analysis; assay type: ADME, organism-based, Neoplasm; conditions: in vivo, 0.5 h
Tumour [31] = test: Biodistribution in Mus musculus KM (mouse) tumor at 15 min by microPET imaging analysis; assay type: ADME, organism-based, Neoplasm; conditions: in vivo, 0.25 h
Blood [32] = test: Biodistribution in tumor bearing Mus musculus KM (mouse) blood at 60 min by microPET imaging analysis; assay type: ADME, organism-based; conditions: in vivo, 1 h
Spleen [33] = test: Biodistribution in tumor bearing Mus musculus KM (mouse) spleen at 5 min by microPET imaging analysis; assay type: ADME, organism-based; conditions: in vivo
Kidney [34] = test: Biodistribution in tumor bearing Mus musculus KM (mouse) kidney at 5 min by microPET imaging analysis; assay type: ADME, organism-based; conditions: in vivo
Kidney [35] = test: Biodistribution in tumor bearing Mus musculus KM (mouse) kidney at 15 min by microPET imaging analysis; assay type: ADME, organism-based; conditions: in vivo, 0.25 h
Spleen [36] = test: Biodistribution in tumor bearing Mus musculus KM (mouse) spleen at 120 min by microPET imaging analysis; assay type: ADME, organism-based; conditions: in vivo, 2 h
Muscle tissue [37] = test: Biodistribution in tumor bearing Mus musculus KM (mouse) muscle at 60 min by microPET imaging analysis; assay type: ADME, organism-based; conditions: in vivo, 1 h
Heart [38] = test: Biodistribution in tumor bearing Mus musculus KM (mouse) heart at 15 min by microPET imaging analysis; assay type: ADME, organism-based; conditions: in vivo, 0.25 h
Liver [39] = test: Biodistribution in tumor bearing Mus musculus KM (mouse) liver by microPET imaging analysis; assay type: ADME, organism-based; conditions: in vivo, TDE = time-dependent effect
Muscle tissue [40] = test: Biodistribution in tumor bearing Mus musculus KM (mouse) muscle at 120 min by microPET imaging analysis; assay type: ADME, organism-based; conditions: in vivo, 2 h
Blood [41] = test: Biodistribution in tumor bearing Mus musculus KM (mouse) blood at 120 min by microPET imaging analysis; assay type: ADME, organism-based; conditions: in vivo, 2 h
Brain [42] = test: Biodistribution in tumor bearing Mus musculus KM (mouse) brain at 30 min by microPET imaging analysis; assay type: ADME, organism-based; conditions: in vivo, 0.5 h
Liver [43] = test: Biodistribution in tumor bearing Mus musculus KM (mouse) liver at 120 min by microPET imaging analysis; assay type: ADME, organism-based; conditions: in vivo, 2 h
Tumour [44] = test: Biodistribution in Mus musculus KM (mouse) tumor at 120 min by microPET imaging analysis; assay type: ADME, organism-based, Neoplasm; conditions: in vivo, 2 h
Heart [45] = test: Biodistribution in tumor bearing Mus musculus KM (mouse) heart by microPET imaging analysis; assay type: ADME, organism-based; conditions: in vivo, TDE = time-dependent effect
Liver [46] = test: Biodistribution in tumor bearing Mus musculus KM (mouse) liver at 30 min by microPET imaging analysis; assay type: ADME, organism-based; conditions: in vivo, 0.5 h
Nucleic Acid [47] = test: Ratio of drug uptake in tumor to muscle in Mus musculus KM (mouse) at 60 min; assay type: ADME, nucleic-acid assay; conditions: in vivo, 1 h
Muscle tissue [48] = test: Biodistribution in tumor bearing Mus musculus KM (mouse) muscle at 30 min by microPET imaging analysis; assay type: ADME, organism-based; conditions: in vivo, 0.5 h
[49] = Octanol-PBS partition coefficient of the compound at pH 7.4 by gamma counter; assay type: physicochemical; conditions: read-out: log KOW
Blood [50] = test: Biodistribution in tumor bearing Mus musculus KM (mouse) blood at 15 min by microPET imaging analysis; assay type: ADME, organism-based; conditions: in vivo, 0.25 h
Liver [51] = test: Biodistribution in tumor bearing Mus musculus KM (mouse) liver at 60 min by microPET imaging analysis; assay type: ADME, organism-based; conditions: in vivo, 1 h
Liver [52] = test: Biodistribution in tumor bearing Mus musculus KM (mouse) liver at 5 min by microPET imaging analysis; assay type: ADME, organism-based; conditions: in vivo
Tumour [53] = test: Biodistribution in Mus musculus KM (mouse) tumor at 60 min by microPET imaging analysis; assay type: ADME, organism-based, Neoplasm; conditions: in vivo, 1 h
Brain [54] = test: Biodistribution in tumor bearing Mus musculus KM (mouse) brain at 120 min by microPET imaging analysis; assay type: ADME, organism-based; conditions: in vivo, 2 h
Brain [55] = test: Biodistribution in tumor bearing Mus musculus KM (mouse) brain at 5 min by microPET imaging analysis; assay type: ADME, organism-based; conditions: in vivo
Spleen [56] = test: Biodistribution in tumor bearing Mus musculus KM (mouse) spleen at 30 min by microPET imaging analysis; assay type: ADME, organism-based; conditions: in vivo, 0.5 h
Spleen [57] = test: Biodistribution in tumor bearing Mus musculus KM (mouse) spleen at 15 min by microPET imaging analysis; assay type: ADME, organism-based; conditions: in vivo, 0.25 h
Lung [58] = test: Biodistribution in tumor bearing Mus musculus KM (mouse) Lung at 120 min by microPET imaging analysis; assay type: ADME, organism-based; conditions: in vivo, 2 h
Lung [59] = test: Biodistribution in tumor bearing Mus musculus KM (mouse) Lung at 15 min by microPET imaging analysis; assay type: ADME, organism-based; conditions: in vivo, 0.25 h

- Drug uptake (Muscle tissue [1]): tde
- Drug uptake (Blood [2]): tde
- Ratio (Nucleic Acid [3]): 2.57
- Drug uptake (Brain [4]): 0.23 % ID/g
- Drug uptake (Spleen [5]): tde
- Drug uptake (Brain [6]): 0.06 % ID/g
- Drug uptake (Kidney [7]): tde
- Drug uptake (Heart [8]): 2.24 % ID/g
- Drug uptake (Tumour [9]): 1.72 % ID/g
- Drug uptake (Kidney [10]): 0.32 % ID/g
- Drug uptake (Tumour [11]): tde
- Drug uptake (Liver [12]): 1.08 % ID/g
- Drug uptake (Muscle tissue [13]): 1.35 % ID/g
- Ratio (Nucleic Acid [14]): 0.99
- Ratio (Nucleic Acid [15]): 1.09
- Drug uptake (Lung [16]): tde
- Drug uptake (Lung [17]): 0.18 % ID/g
- Drug uptake (Blood [18]): 4.57 % ID/g
- Drug uptake (Heart [19]): 0.25 % ID/g
- Drug uptake (Lung [20]): 3.37 % ID/g
- Drug uptake (Muscle tissue [21]): 0.82 % ID/g
- Drug uptake (Blood [22]): 0.39 % ID/g
- Drug uptake (Spleen [23]): 0.21 % ID/g
- Drug uptake (Heart [24]): 0.22 % ID/g
- Drug uptake (Kidney [25]): 0.46 % ID/g
- Drug uptake (Brain [26]): tde
- Drug uptake (Heart [27]): 0.28 % ID/g
- Drug uptake (Kidney [28]): 1.17 % ID/g
- Drug uptake (Lung [29]): 0.37 % ID/g
- Drug uptake (Tumour [30]): 0.47 % ID/g
- Drug uptake (Tumour [31]): 0.89 % ID/g
- Drug uptake (Blood [32]): 0.18 % ID/g
- Drug uptake (Spleen [33]): 1.12 % ID/g
- Drug uptake (Kidney [34]): 17.9 % ID/g
- Drug uptake (Kidney [35]): 5.15 % ID/g
- Drug uptake (Spleen [36]): 0.2 % ID/g
- Drug uptake (Muscle tissue [37]): 0.15 % ID/g
- Drug uptake (Heart [38]): 0.75 % ID/g
- Drug uptake (Liver [39]): tde
- Drug uptake (Muscle tissue [40]): 0.14 % ID/g
- Drug uptake (Blood [41]): 0.3 % ID/g
- Drug uptake (Brain [42]): 0.12 % ID/g
- Drug uptake (Liver [43]): 0.37 % ID/g
- Drug uptake (Tumour [44]): 0.36 % ID/g
- Drug uptake (Heart [45]): tde
- Drug uptake (Liver [46]): 0.38 % ID/g
- Ratio (Nucleic Acid [47]): 1.93
- Drug uptake (Muscle tissue [48]): 0.47 % ID/g
- logD [49]: -1.55
- Drug uptake (Blood [50]): 1.45 % ID/g
- Drug uptake (Liver [51]): 0.25 % ID/g
- Drug uptake (Liver [52]): 2.75 % ID/g
- Drug uptake (Tumour [53]): 0.29 % ID/g
- Drug uptake (Brain [54]): 0.13 % ID/g
- Drug uptake (Brain [55]): 0.34 % ID/g
- Drug uptake (Spleen [56]): 0.22 % ID/g
- Drug uptake (Spleen [57]): 0.48 % ID/g
- Drug uptake (Lung [58]): 0.2 % ID/g
- Drug uptake (Lung [59]): 1.11 % ID/g
Compound: O=C(O)CNC(=O)c1ccc(OCC[18F])cc1 [[18F]FEBA hydrolytic acid]
